Data published in patent US20110224276A1, “OPTICAL ISOMER OF PHENYLPROPIONIC ACID AND ITS MEDICINAL USE” (priority 2008, published 2011).
pIC50: −log10 of the molar value. Several values for one entry are separate records, joined by “and”; a condition that tells them apart may be missing. Equal values may be shown once.

Tests used:
[1] = system: ICR mice; test: in vivo
Source text: (§1) Each tested group includes 5 dose-groups during the tests as follows:
Intragastric administration (ig)
(3) Observed periods: 14 days

[2] = target: T1, Cox-1 (Ovis aries, UniProt P05979); test: inhibiting activity to COX-1 (TMPD colorimetric, 590 nm); type: biochemical; details: tested at 300, 100, 30, 10 μmol/L (positive control 100, 30, 10, 3)
T1 construct: purchased Cayman, USA
T1 sequence (P05979 25-600): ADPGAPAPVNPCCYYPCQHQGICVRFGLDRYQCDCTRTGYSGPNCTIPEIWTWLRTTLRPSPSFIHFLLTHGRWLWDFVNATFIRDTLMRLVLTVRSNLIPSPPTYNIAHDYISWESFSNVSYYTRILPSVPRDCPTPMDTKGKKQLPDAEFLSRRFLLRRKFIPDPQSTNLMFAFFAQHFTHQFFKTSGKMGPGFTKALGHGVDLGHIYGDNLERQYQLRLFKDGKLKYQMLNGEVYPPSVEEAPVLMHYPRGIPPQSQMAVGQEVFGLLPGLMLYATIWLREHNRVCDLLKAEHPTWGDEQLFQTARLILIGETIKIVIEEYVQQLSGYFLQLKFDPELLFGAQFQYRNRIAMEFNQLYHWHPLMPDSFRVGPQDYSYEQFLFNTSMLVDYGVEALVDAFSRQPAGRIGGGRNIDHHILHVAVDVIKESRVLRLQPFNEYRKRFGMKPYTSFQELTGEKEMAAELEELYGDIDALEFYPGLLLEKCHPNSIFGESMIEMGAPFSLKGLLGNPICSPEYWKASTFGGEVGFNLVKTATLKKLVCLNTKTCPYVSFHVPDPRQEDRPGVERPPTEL
Method: (§2) 2.5.1 The Inhibiting Activity to COX-1/COX-2
(§3) (1) In 220 ul of reaction system, mixed buffer (1×), heme, COX-1/COX-2, and the compound to be tested, are sequentially added, and are incubated for 5 minutes at 25° C.;
(§4) (2) Adding chromogenic substrate (TMPD) and arachidonic acid;
(§5) (3) Carefully shaking the plate for several seconds, then incubating for 15 minutes at 25° C.;
(§6) (4) Detecting absorption value at 590 nm.
(§7) Fitting data of concentration (μmol/L) and corresponding inhibition rate (%) via Microsoft EXCEL software to get a trendline, so as to obtain the half-effective inhibiting concentration (IC50) of each tested enzyme.

[3] = system: SD rats; test: long-term toxicity test in SD rats, thirteen-week consecutive intragastric administration and four-week convalescence; details: rats
Method: 2. […] The tested samples are formulated into suspensions by milling with 0.5% CMC—Na; intragastric administration (10 ml/kg) every day for consecutive 13 weeks; on each day, after administration, the general conditions of the animals are observed, and weight and amount of ingestion are determined once every week. In 24 hours after the last administration, half of rats in each tested group are fasted overnight, blood samples are withdrawn via femoral arteries, and the rats are dissected, and the indexes of blood cytology and biochemics, gloss anatomy and histopathological examination are preformed. The administration to remaining half rats is stopped, and the convalescence is observed; general conditions are observed and weight and amount of ingestion are determined once every week. After 4 weeks, the observation is complete, and the half of rats in each tested group are fasted overnight, blood samples are withdrawn via femoral arteries, and the rats are dissected, and the indexes of blood cytology and biochemics, gloss anatomy and histopathological examination are preformed.

[4] = target: T2, 5-Lox (human recombinant) (Homo sapiens, UniProt P09917); test: inhibiting activity to 5-lipoxygenase (500 nm); type: biochemical; details: tested at 300, 100, 30, 10 μmol/L (positive control 100, 30, 10, 3)
T2 construct: purchased Cayman, USA
T2 sequence (P09917 1-674): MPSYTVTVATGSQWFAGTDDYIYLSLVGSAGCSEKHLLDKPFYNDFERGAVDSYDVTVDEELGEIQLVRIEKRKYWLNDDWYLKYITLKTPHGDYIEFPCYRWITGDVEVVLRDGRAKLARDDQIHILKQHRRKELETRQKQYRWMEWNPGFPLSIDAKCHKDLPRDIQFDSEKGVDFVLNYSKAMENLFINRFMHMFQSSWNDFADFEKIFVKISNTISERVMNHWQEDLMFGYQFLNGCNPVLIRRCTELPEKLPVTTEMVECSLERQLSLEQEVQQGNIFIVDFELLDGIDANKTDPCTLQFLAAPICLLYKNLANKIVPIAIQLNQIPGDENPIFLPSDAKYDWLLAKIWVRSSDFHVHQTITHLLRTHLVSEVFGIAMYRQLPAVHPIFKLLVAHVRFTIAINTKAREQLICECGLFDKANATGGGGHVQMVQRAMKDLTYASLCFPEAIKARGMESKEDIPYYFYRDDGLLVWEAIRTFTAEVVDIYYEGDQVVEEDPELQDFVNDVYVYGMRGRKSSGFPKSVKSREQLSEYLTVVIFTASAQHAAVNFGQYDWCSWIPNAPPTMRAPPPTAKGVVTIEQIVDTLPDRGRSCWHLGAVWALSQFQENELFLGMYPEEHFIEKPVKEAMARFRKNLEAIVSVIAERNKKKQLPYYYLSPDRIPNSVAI
Source text: as §7

[5] = system: ICR mice; test: in vivo; remark: listed apart in the source
Source text: as §1
Intraperitoneal injection (ip)
(3) Observed periods: 14 days.

[6] = system: SD rats; test: toxicity test in SD rats, four-week consecutive intragastric administration; details: rats
Method: 2. […] The tested samples are formulated into suspensions by milling with 0.5% CMC—Na; intragastric administration every day (10 ml/kg) for consecutive 4 weeks; on each day, after administration, the general conditions of the animals are observed, and weight and amount of ingestion are determined once every week. In 24 hours after the last administration, the rats are fasted overnight, blood samples are withdrawn via femoral arteries, and the rats are dissected, and the indexes of blood cytology and biochemics, gloss anatomy and histopathological examination are preformed.

[7] = target: T3, Cox-2 (Homo sapiens, UniProt P35354); test: inhibiting activity to COX-2 (TMPD colorimetric, 590 nm); type: biochemical; details: tested at 300, 100, 30, 10 μmol/L (positive control 100, 30, 10, 3)
T3 construct: purchased Cayman, USA
T3 sequence (P35354 18-604): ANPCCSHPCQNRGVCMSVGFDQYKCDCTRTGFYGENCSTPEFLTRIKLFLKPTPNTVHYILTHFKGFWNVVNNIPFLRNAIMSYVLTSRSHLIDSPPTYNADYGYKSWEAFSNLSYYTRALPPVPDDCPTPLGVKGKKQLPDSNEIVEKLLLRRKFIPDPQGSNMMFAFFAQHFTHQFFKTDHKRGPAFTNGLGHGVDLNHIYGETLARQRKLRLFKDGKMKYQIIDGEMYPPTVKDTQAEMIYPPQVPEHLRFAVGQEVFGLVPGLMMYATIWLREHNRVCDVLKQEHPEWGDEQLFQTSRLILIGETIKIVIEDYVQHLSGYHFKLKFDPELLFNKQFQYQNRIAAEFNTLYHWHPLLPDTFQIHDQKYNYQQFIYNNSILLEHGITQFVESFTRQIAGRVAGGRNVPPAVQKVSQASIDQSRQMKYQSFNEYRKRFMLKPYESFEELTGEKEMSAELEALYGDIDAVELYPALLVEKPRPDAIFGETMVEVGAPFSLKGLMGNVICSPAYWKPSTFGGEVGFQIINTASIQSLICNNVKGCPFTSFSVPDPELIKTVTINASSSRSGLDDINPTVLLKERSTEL
Method: as §2, §3, §4, §5, §6, §7

## R-10,11-dihydro-alpha-methyl-10-oxo-dibenzo[b,f]tiazem-2-acetic acid:S-10,11-dihydro-alpha-methyl-10-oxo-dibenzo[b,f]tiazem-2-acetic acid (6:1) [S:R = 1:6]
[1]; LD50 ig compared with S
  Com. Vs. S (multiple): 4.2 multiple
[1]; mice, ig, single dose, 14 days observation, Bliss method
  LD50: 1138.5 ± 80.3 mg/kg and 1138.5 mg/kg
[2]
  pIC50: 4.15
[3]; 13-week ig, S 50, 25, RS 50, R 400, 200, 100, R:S=6:1 200, 100, 50 mg/kg
  gastrointestinal tract toxicity: not produce significant gastrointestinal tract toxicity
[3]; 13-week consecutive intragastric administration
  nontoxic dosage: 100 mg/kg
[4]
  pIC50: 4.73
[5]; LD50 ip compared with S
  Com. Vs. S (multiple): 2.5 multiple
[5]; mice, ip, single dose, 14 days observation, Bliss method
  LD50: 497.6 ± 28.6 mg/kg
[6]; four-week ig, S 80, 40, RS 80, R 480, 240, 120, R:S=6:1 320, 160, 80 mg/kg
  gastrointestinal tract toxicity: do not produce significant gastrointestinal tract toxicity
[6]; four-week consecutive intragastric administration
  nontoxic dosage: 160 mg/kg
[7]
  pIC50: 5.28
